From PMC12721191, “Oxidative hypoxia drives TGF-β1–induced fibrosis under normoxia” (Redox Biology, 2025)
Entries after “also recorded” stand apart in the source; their conditions may differ.

How the values were obtained:
A549 [1] = assay: MTT cytotoxicity assay; assay type: cell-based, human; conditions: two cell lines including A549, up to 7 μM, with or without TGF-β1
Protocol: Cells (8 × 10^3 per well, 96-well) were treated as indicated, incubated with 0.5 mg/mL MTT for 4 h, solubilized in DMSO, and read at 570 nm.
Cells were seeded at 8 × 10³ cells per well in 200 µL of medium in a 96-well plate. The next day, the medium was replaced with medium containing the test compound(s) at the desired concentration(s) and incubated for the specified duration. After the incubation, the medium was discarded and replaced with 0.5 mg/mL Thiazolyl Blue Tetrazolium Bromide in PBS. Following a 4 h incubation at 37 °C, the formazan crystals were dissolved in DMSO, and absorbance was measured at 570 nm using a SUNRISE™ microplate reader. The relative cell viability was calculated based on the optical density values.

[2] = Metabolic stability in pooled human liver microsomes; assay type: in vitro ADME; conditions: with NADPH, 0–60 min, read-out: half-life (t1/2) in HLMs
Protocol: To initiate the reaction, NADPH generating system was added to the incubation samples and further incubated for specific time points (0, 5, 15, 30, 45, and 60 min). Then, sample aliquots were taken and terminated with cold acetonitrile.

[3] = test system: BLM-induced pulmonary fibrosis; assay: RT-qPCR of lung tissue in BLM-treated mice; assay type: in vivo, ICR mice; conditions: BLM 30 mg/kg; ACF-2 10 mg/kg i.p. every 2 days or NIDB 60 mg/kg/day
Protocol: Total RNA (AccuPrep®) was reverse-transcribed and amplified with SYBR Green chemistry on a StepOnePlusTM system; relative expression was calculated by ΔΔCt. Male ICR mice received BLM (30 mg/kg, intratracheal). […] Total RNA was extracted from both cultured cells and mouse lung tissue using the AccuPrep® Universal RNA Extraction Kit. […] RT-qPCR was performed using iTaqTM Universal SYBR® Green Supermix on a StepOnePlusTM Real-Time PCR System. […] All animal studies were approved by the Institutional Animal Care and Use Committee of Jeju National University (Approval ID: 2024-0058) and conducted in compliance with institutional guidelines. Male ICR mice (6 weeks old, average body weight 27 g) were purchased from […] (South Korea) and housed under controlled temperature (22 ± 2 °C) and humidity (0.0 ± 15.0 %) on a 12 hr light-dark cycle with free access to food and water.

A549 [4] = assay: Western blot of HIF-1α, fibrosis and EMT markers in A549; assay type: cell-based, human
CYP2C8 = target: T1, CYP2C8 (Homo sapiens, UniProt P10632); assay: Cytochrome P450 inhibition assay in HLMs; assay type: in vitro ADME; conditions: pooled human liver microsomes, probe amodiaquine (N-deethylation), up to 50 μM
T1 construct: tissue Xenotech H0630; host or cells: pooled human liver microsomes
T1 sequence (P10632 1-490): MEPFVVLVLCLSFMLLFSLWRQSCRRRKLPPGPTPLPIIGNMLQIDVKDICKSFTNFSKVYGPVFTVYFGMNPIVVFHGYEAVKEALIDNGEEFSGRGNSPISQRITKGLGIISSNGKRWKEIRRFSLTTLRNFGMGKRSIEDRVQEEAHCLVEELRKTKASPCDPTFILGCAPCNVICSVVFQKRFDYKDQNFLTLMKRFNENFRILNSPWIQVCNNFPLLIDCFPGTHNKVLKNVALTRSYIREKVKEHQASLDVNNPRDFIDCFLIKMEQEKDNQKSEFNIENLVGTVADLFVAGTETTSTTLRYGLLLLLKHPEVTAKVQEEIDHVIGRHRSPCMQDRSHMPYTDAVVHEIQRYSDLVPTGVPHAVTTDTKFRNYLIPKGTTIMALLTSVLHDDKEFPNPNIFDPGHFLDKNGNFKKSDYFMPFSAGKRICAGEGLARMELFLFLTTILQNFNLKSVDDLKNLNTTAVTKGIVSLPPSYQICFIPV
Protocol: (§1) All experiments were performed in triplicate. Phenacetin O-deethylase, coumarin hydroxylase, bupropion hydroxylase, amodiaquine N-deethylase, tolbutamide 4-hydroxylase, S-mephenytoin hydroxylase, dextromethorphan O-demethylase, chlorozoxazone 6-hydroxylase, and midazolam 1’-hydroxylase activities were determined as probe activities for CYP1A2, CYP2A6, CYP2B6, CYP2C8, CYP2C9, CYP2C19, CYP2D6, CYP2E1, and CYP3A, respectively, using cocktail incubation and tandem mass spectrometry, as described previously^2,3.

CYP2C19 = target: T2, CYP2C19 (Homo sapiens, UniProt P33261); assay: Cytochrome P450 inhibition assay in HLMs; assay type: in vitro ADME; conditions: pooled human liver microsomes, probe S-mephenytoin (4-hydroxylation), up to 50 μM
T2 construct: tissue Xenotech H0630; host or cells: pooled human liver microsomes
T2 sequence (P33261 whole entry): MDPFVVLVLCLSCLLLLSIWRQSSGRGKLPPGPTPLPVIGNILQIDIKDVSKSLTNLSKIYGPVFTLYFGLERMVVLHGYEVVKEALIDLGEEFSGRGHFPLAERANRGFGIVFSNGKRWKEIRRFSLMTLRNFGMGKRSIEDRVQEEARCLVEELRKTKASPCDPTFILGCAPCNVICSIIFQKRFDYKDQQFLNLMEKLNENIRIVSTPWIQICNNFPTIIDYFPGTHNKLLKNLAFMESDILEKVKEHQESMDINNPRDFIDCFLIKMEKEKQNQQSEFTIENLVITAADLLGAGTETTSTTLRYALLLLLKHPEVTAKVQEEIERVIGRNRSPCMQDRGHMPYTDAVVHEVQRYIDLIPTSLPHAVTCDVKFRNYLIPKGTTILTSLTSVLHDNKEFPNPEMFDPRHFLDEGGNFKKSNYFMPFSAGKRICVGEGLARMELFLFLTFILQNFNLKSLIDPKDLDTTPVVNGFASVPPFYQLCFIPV
Protocol: as §1

colon = assay: Colonic histopathology in the BLM mouse study; assay type: in vivo, ICR mice; conditions: BLM mice; ACF-2 10 mg/kg i.p. every 2 days or NIDB 60 mg/kg/day
From the text: Fixed left lung lobes were paraffin-embedded, sectioned (4 μm), and stained with H&E or MT. A blinded pathologist graded pulmonary fibrosis on the 1-8 Ashcroft scale; representative images illustrate typical lesions. Colon samples were processed by the swiss-roll method, stained with H&E, and scored for inflammation and erosion, which were combined into a composite histological score. All animal studies were approved by the Institutional Animal Care and Use Committee of Jeju National University (Approval ID: 2024-0058) and conducted in compliance with institutional guidelines. Male ICR mice (6 weeks old, average body weight 27 g) were purchased from […] (South Korea) and housed under controlled temperature (22 ± 2 °C) and humidity (0.0 ± 15.0 %) on a 12 hr light-dark cycle with free access to food and water. […] Colon tissue: Colons were harvested, flushed with 1xPBS, and prepared using the swiss-roll method before embedding in paraffin. Sections of 4 μm thickness were subjected to H&E staining as described above. Colonic injury was evaluated by two independent parameters: (i) inflammation score (0-3) and (ii) erosion score (0-3). A composite histological score was then calculated as the sum of inflammation and erosion scores for each sample.

HIF-1α–EGFP in A549 = assay: pg-HIF-1α–EGFP fluorescence in transfected A549; assay type: cell-based, human; conditions: A549, co-treatment with TGF-β1
Protocol: pg-HIF-1α–EGFP was introduced via jetOPTIMUS®; GFP fluorescence was quantified 48 h post-transfection.
Transient transfection of A549 cells with pg-HIF-1α–EGFP was performed using jetOPTIMUS® according to the manufacturer’s protocol. Following 48 hr of transfection, the medium was replaced, and cells were treated with TGF-β1 at the specified concentration and duration before further analysis. Cell imaging was performed using an EVOS™ M7000 at 10×, 20×, or 40× magnification. GFP fluorescence intensity was measured using ImageJ. The mean fluorescence within the regions of interest (ROIs) was calculated after background subtraction, and values were normalized to the control condition

COc1ccc(-c2c(-c3ccc(O)c(OC)c3)oc3cc(OC)c(OC)cc3c2=O)cc1 [ACF-2]
cytotoxicity (MTT) (A549 [1]): does not induce cellular cytotoxicity; also recorded: did not exhibit cytotoxic effects | half-life at 1 µM [2]: > 1 h | TGF-β1 (Tgfb1) expression in lung (RT-qPCR) [3]: markedly reduced | BLM-induced HIF-1α levels (Western blot) (A549 [4]; A549, BLM 15 μM, 10 h): effectively suppressed | fibronectin, α-SMA, N-cadherin (Western blot) (A549 [4]; A549, TGF-β1 24 h, ACF-2 7 μM): coordinated suppression of fibrosis markers (fibronectin, α-SMA) and EMT marker (N-cadherin) | COL3A1 and COL4A6 (Western blot) (A549 [4]; A549, TGF-β1 24 h, ACF-2 co-treatment): dose-dependent reduction of fibrosis markers COL3A1 and COL4A6 | IC50 (CYP2C8): 6.24 µM | IC50 (CYP2C19): 8.05 µM | composite histological score of colon (inflammation + erosion) (colon): did not induce colonic inflammation or erosion | TGF-β1–induced HIF-1α–EGFP GFP fluorescence intensity (HIF-1α–EGFP in A549): significantly attenuated the TGF-β1–induced increase in GFP fluorescence intensity
